Drawing on patent US7951814B2, “Quinazolinedione derivatives as TRPA1 modulators” (Glenmark Pharmaceuticals, S.A., priority 2008, dated 2011), this text covers inhibition and IC50 for eleven compounds.

The target in the assay is T1, Human TRPA1 expressing CHO cells (Homo sapiens, UniProt O75762).
T1 construct: expressed in transfected cells; host or cells: CHO cells (under G-418 selection)
The experiment in a line: 45Calcium uptake assay: inhibition of AITC induced cellular uptake of radioactive calcium. In kind it is cell-based. The settings on record: AITC 30 μM, human TRPA1 CHO cells; for inhibition at 1 µM: 1.0 μM test compound, read-out: Percentage inhibition at 1.0 μM; for inhibition at 10 µM: 10.0 μM test compound, read-out: Percentage inhibition at 10.0 μM; for IC50: read-out: IC50 value (range). The procedure:
The illustrative examples of the present invention are screened for TRPA1 activity according to a modified procedure described in (a) Tóth, A. et al. Life Sciences (2003), 73, 487-498. ([…]. et al. Proc. Natl. Acad. Sci. U.S.A., (2007), 104, 13525-13530. The screening of the compounds can be carried out by other methods and procedures known to persons skilled in the art. Screening for TRPA1 Antagonist Using the ^45Calcium Uptake Assay The inhibition of TRPA1 receptor activation was measured as inhibition of allyl isothiocyanate (AITC) induced cellular uptake of radioactive calcium. […] Final concentration of DMSO in the reaction was 0.5% (v/v). […] Cells were seeded 24 h prior to the assay in 96 well plates so as to get 50,000 cells per well on the day of experiment. Cells were treated with test compounds for 10 min followed by addition of AITC at a final concentration of 30 μM and 5 μCi/ml ^45Ca^+2 for 3 min. […] Radioactivity in the lysate was measured in Packard Top count after addition of liquid scintillant. Concentration response curves were plotted as a % of maximal response obtained in the absence of test antagonist. IC50 value was calculated from concentration response curve by nonlinear regression analysis using GraphPad PRISM software.

T1 sequence (O75762 whole entry): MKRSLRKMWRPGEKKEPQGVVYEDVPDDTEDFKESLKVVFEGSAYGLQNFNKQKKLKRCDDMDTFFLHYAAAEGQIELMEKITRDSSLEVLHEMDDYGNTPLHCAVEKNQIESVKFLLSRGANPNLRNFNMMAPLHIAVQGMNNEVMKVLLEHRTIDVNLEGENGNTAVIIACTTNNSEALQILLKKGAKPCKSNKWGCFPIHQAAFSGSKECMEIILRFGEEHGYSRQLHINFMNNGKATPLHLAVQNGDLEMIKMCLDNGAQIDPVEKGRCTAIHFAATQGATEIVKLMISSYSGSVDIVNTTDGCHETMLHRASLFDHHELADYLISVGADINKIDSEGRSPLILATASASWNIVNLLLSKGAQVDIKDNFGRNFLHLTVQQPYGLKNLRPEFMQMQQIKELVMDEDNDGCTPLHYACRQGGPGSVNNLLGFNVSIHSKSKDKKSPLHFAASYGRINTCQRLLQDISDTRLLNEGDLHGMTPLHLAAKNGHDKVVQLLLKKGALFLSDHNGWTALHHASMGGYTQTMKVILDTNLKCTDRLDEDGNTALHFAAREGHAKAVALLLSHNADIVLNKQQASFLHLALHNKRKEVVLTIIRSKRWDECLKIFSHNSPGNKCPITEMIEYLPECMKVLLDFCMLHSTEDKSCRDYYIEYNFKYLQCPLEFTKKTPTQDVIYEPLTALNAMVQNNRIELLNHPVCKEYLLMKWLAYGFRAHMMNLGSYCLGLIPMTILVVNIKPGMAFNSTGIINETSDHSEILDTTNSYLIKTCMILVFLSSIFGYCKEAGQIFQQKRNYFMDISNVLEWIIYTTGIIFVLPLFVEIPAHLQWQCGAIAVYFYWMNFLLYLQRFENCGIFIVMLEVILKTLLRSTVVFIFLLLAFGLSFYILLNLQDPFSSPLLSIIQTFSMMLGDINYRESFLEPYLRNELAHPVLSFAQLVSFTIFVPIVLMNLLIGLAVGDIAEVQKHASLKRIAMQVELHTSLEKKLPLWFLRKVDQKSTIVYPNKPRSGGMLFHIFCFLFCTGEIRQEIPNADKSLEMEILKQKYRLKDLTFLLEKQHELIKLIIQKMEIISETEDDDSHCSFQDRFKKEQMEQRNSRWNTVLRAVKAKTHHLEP

With `Cn1c(=O)c2c(CC(=O)Nc3nc4ccc(F)cc4s3)cccc2n(C)c1=O` [Example 76, N1-[6-Fluorobenzo[d][1,3]thiazol-2-yl)-2-(1,3-dimethyl-2,4-dioxo-1,2,3,4-tetrahydro-5-quinazolinyl)acetamide], the inhibition (usually the change of the read-out against control, counted positive when it falls) at 1 µM was found to be 33% and the inhibition at 10 µM worked out at 28.5%.

Take `Cc1sc(NC(=O)Cc2cccc3c2c(=O)n(C)c(=O)n3C)nc1-c1ccc(Cl)cc1` [Example 30, N1-[4-(4-Chlorophenyl)-5-methyl-1,3-thiazolyl]-2-(1,3-dimethyl-2,4-dioxo-1,2,3,4-tetrahydro-5-quinazolinyl)acetamide]: the inhibition at 1 µM is 37.3% and the inhibition at 10 µM turned out to be 91%.

Consider `Cn1c(=O)c2c(CC(=O)Nc3nc4ccccc4s3)cccc2n(C)c1=O` [Example 75], for which the inhibition at 1 µM came out at 5.6% and the inhibition at 10 µM was 30.5%.

In the case of `Cn1c(=O)c2c(CC(=O)Nc3nc(-c4ccc(OC(F)F)c(Cl)c4)cs3)cccc2n(C)c1=O` [Example 57, N1-{4-[3-Chloro-4-(difluoromethoxy)phenyl]-1,3-thiazol-2-yl}-2-(1,3-dimethyl-2,4-dioxo-1,2,3,4-tetrahydro-5-quinazolinyl)acetamide], the inhibition at 1 µM came to 97.8%; the inhibition at 10 µM worked out at 99.7%; the IC50 (as a rule, the midpoint of a concentration-inhibition curve) was under 50 nM.

In the case of `Cn1c(=O)c2c(CC(=O)Nc3nc(-c4ccc(C(F)(F)F)cc4F)cs3)cccc2n(C)c1=O` [Example 36, N1-[4-(2-Fluoro-4-trifluoromethylphenyl)-1,3-thiazol-2-yl]-2-(1,3-dimethyl-2,4-1,2,3,4-tetrahydro-5-quinazolinyl)acetamide], the inhibition at 1 µM was found to be 95.1%, the inhibition at 10 µM is 100% and the IC50 is under 50 nM.

`Cn1c(=O)c2c(CC(=O)Nc3nc(-c4c(F)cccc4Cl)cs3)cccc2n(C)c1=O` [Example 53, N1-[4-(2-Chloro-6-fluorophenyl)-1,3-thiazol-2-yl]-2-(1,3-dimethyl-2,4-dioxo-1,2,3,4-tetrahydro-5-quinazolinyl)acetamide]: the inhibition at 1 µM stood at 33.1% and the inhibition at 10 µM is 88.6%.

As for `Cn1c(=O)c2c(CC(=O)Nc3nc(-c4ccc(F)c(C(F)(F)F)c4)cs3)cccc2n(C)c1=O` [Example 38, N1-[4-(4-Fluoro-3-trifluoromethylphenyl)-1,3-thiazol-2-yl]-2-(1,3-dimethyl-2,4-dioxo-1,2,3,4-tetrahydro-5-quinazolinyl)acetamide], the inhibition at 1 µM amounted to 98.5%, the inhibition at 10 µM came to 98.7% and the IC50 was under 50 nM.

Regarding `Cn1c(=O)c2c(CC(=O)Nc3nc(-c4cc(F)c(C(F)(F)F)c(F)c4)cs3)cccc2n(C)c1=O` [Example 66, N1-{4-[3,5-Difluoro-4-trifluoromethylphenyl]-1,3-thiazol-2-yl}-2-(1,3-dimethyl-2,4-dioxo-1,2,3,4-tetrahydro-5-quinazolinyl)acetamide], the inhibition at 1 µM amounted to 100%, the inhibition at 10 µM was determined as 100% and the half-maximal inhibitory concentration (IC50) was under 50 nM.

As for `COc1ccc(-c2csc(NC(=O)Cc3cccc4c3c(=O)n(C)c(=O)n4C)n2)cc1F` [Example 43], the inhibition at 1 µM is 5.71% and the inhibition at 10 µM came to 9.15%.

On to `Cn1c(=O)c2c(CC(=O)Nc3ccn(-c4cccc(C(F)(F)F)c4)n3)cccc2n(C)c1=O` [Example 81, N1-[1-(3-Trifluoromethylphenyl)-1H-3-pyrazolyl]-2-(1,3-dimethyl-2,4-dioxo-1,2,3,4-tetrahydro-5-quinazolinyl)acetamide], for which the inhibition at 1 µM is 97.1%, the inhibition at 10 µM was found to be 99.6% and the IC50 is 50.1 to 100 nM.

With `Cn1c(=O)c2c(CC(=O)Nc3nc(-c4cccc(F)c4F)cs3)cccc2n(C)c1=O` [Example 35, N1-[4-(2,3-Difluorophenyl)-1,3-thiazol-2-yl]-2-(1,3-dimethyl-2,4-dioxo-1,2,3,4-tetrahydro-5-quinazolinyl)acetamide], the inhibition at 1 µM was 76.8%, the inhibition at 10 µM is 95.8% and the IC50 lay within 50.1 to 100 nM.
